In US20120045523A1, “COMBINATION OF A TLR3 LIGAND AND A CHEMOTHERAPY AGENT WHICH ACTS ON THE INTRINSIC "APOPTOSIS" PATHWAY IN THE TREATMENT OF CANCER” (UNIVERSITE CLAUDE BERNARD LYON I, priority 2008, published 2012):
Where two headings read alike, the source gives them in different places.

Experiments:
NCI-H292 cells [1] = assay: Number of living cells (MTS, CellTiter 96 AQueous One) after chemotherapy and/or poly(I:C); settings: for CI (combination index): agent in combination with poly(I:C), average CI; for nature of interaction with poly(I:C), from CI: combination with poly(I:C)
NCI-H1703 cells [2] = assay: as above; format: cell-based, human; settings: for CI (combination index) / IC50 / nature of interaction with poly(I:C), from CI / reduction of the number of living cells: NCI-H1703; for CI (combination index): agent in combination with poly(I:C), average CI; for nature of interaction with poly(I:C), from CI: combination with poly(I:C); for cytotoxicity at 4 µM: NCI-H1703, NCI-H1703, FIG. 1B, read-out: loss of viable cells; for reduction of the number of living cells: FIG. 1A
NCI-H1703 cells [3] = assay: Annexin V-FITC/propidium iodide labeling, flow cytometry (apoptosis); format: cell-based, human; settings: for effect of 2 h exposure to agent before poly(I:C) on percentage of apoptotic cells: NCIH-1703, annexin V after 24 h, concentrations at IC50, FIG. 4
From the text: (§1) The duplexes of control small interfering RNA (siRNA; Dharmacon) and siRNA specific for caspase 8 and caspase 9 (Qiagen) used are as follows: 1) control: ON-TARGETplus siCONTROL Non-Targeting siRNA #3; caspase 8 sense 5′-r(GAG UCU GUG CCC AAA UCA A)dTdT-3′, caspase 8 antisense 5′-r(UUG AUU UGG GCA CAG ACU C)dTdT-3′; caspase 9 sense 5′-r(GAG UGG CUC CUG GUA CGU U)dTdT-3′, caspase 9 antisense 5′-r(AAC GUA CCA GGA GCC ACU C)dTdT-3′. The siRNAs were transfected by the HiPerFect (Qiagen) transfection reagent according to the manufacturer's recommendations. Briefly, NCI-H1703 or NCI-H292 cells are cultured in 100 mm dishes, dislodged by trypsin, placed in 24-well plates at a concentration of 50,000 cells in 400 μl of medium per well and incubated at 37° C. during preparation of the mixes. Mixes for each well of a 24-well plate are prepared as follows: the siRNA duplexes are diluted in 100 μl of serum-free and antibiotic-free culture medium, 3 μl of HiPerFect is added, and then the solution is vortexed and incubated for 5-10 min at room temperature. 100 μl of mix is then added drop by drop to the cells and the mixture is homogenized by shaking the plate. The culture medium is changed the following day. The final siRNA concentration is 5 nM and treatment with poly(I:C) begins 72 h after transfection. For these conditions, the effectiveness of caspase 8 and caspase 9 siRNAs in decreasing the level of expression of caspase 8 and caspase 9 proteins, respectively, were measured by western blot, and reaches roughly 85% for caspase 8 siRNA and 75% for caspase 9 siRNA.
In relation to the mechanism of reduction of the number of living cells, the percentage of cells labeled with annexin V after culture after treatment with poly(I:C) was determined by flow cytometry. […] Seventy-two hours after transfection of the control (sictrl), caspase (sicasp8), caspase 9 (sicasp9) or caspase 8+caspase 9 (sicasp8+9) siRNAs, NCI-H1703 cells are treated with 100 μg/ml of poly(I:C) for 24 h or are not treated. The percentage of annexin V-positive cells is measured by flow cytometry. The results presented are the average of three experiments carried out independently. Error Bar, ±SE.
Poly(I:C) induces apoptosis of NSCLC NCIH-1703 and NCIH-292 cell lines. To determine whether the greater reduction in the number of cells alive after treatment with the combination of poly(I:C) and cisplatin or etoposide resulted at least partially from an increase in apoptosis, the cells were labeled with annexin V after 24 h of culture as described in the “Materials and methods” section above.

NCI-H292 cells [4] = assay: as above; format: cell-based, human; settings: NCIH-292; annexin V after 24 h; concentrations at IC50; FIG. 4
From the text: as §1, with “100 μl of mix is then added drop by drop to the cells and the mixture is homogenized by shaking the plate. The culture medium is changed the following day. The final siRNA concentration is 5 nM and treatment with poly(I:C) begins 72 h after transfection.” left out, “siRNA. […]” for “siRNA.”

NCI-H1703 cells [5] = assay: Viability of cells cultured 24 h with poly(I:C) and wortmannin; format: cell-based, human
Method: Similarly, a study was undertaken to determine the viability of cells of the NCI-H1703 human squamous cell lung cancer cell line cultured for 24 h in the presence of TLR3 ligand (poly(I:C), 100 μg/ml) at various concentrations (0 μM, 0.1 μM and 1.0 μM) of wortmannin, a specific PI3 kinase inhibitor.
In the same way, a study was undertaken to determine the percentage of cells of the NCI-H1703 human squamous cell lung cancer cell line in apoptosis (FACS analysis after labeling with annexin V-FITC/propidium iodide) after culture for 24 h in the presence of TLR3 ligand (poly(I:C), 100 μg/ml) with various concentrations (0 μM, 0.1 μM and 1.0 μM) of specific PI3 kinase inhibitor, wortmannin (WM). […] Moreover, the synergy is strong: with 1 μM wortmannin alone, 6% fewer living cells are observed after 24 h; with 100 μg/ml poly(I:C) alone, 26% fewer living cells are observed after 24 h; when both molecules are used in combination at these same concentrations, however, 71% fewer living cells are observed after 24 h.

TLR3 = assay: Apoptosis induced by TLR3 ligands, with siRNA inhibition of receptors; format: cell-based
From the text: “Specific TLR3 ligand” refers to a ligand that is recognized only by the TLR3 membrane receptor, and not by intracellular receptors such as RIG-I, MDA-5 and PKR. Examples of such a ligand includes the ligand poly(A:U) or specific synthetic double-stranded RNA, in contrast with poly(I:C) whose activity is based not only on its interaction with TLR3 but also by intracellular receptors, whereas poly(A:U) acts specifically on TLR3.

[6] = chemotherapeutic agent used alone, 2 h exposure, then 70 h culture, read-out: IC50
[7] = NCI-H292, chemotherapeutic agent used alone, 2 h exposure, then 70 h culture
[8] = Homo sapiens, chemotherapeutic agent used alone, 2 h exposure, then 70 h culture, read-out: IC50

| Compound | IC50 (NCI-H292 cells [1]; Homo sapiens, NCI-H292) | CI (combination index) (NCI-H292 cells [1]; NCI-H292) | nature of interaction with poly(I:C), from CI (NCI-H292 cells [1]; NCI-H292) | CI (combination index) (NCI-H1703 cells [2]) | nature of interaction with poly(I:C), from CI (NCI-H1703 cells [2]) | IC50 (NCI-H1703 cells [2]; [8]) | other results |
| --- | --- | --- | --- | --- | --- | --- | --- |
| O=c1[nH]cc(F)c(=O)[nH]1 [5-Fluouracile, 5-fluorouracil] | 133 µM | 0.78 ± 0.09 | moderate synergy |  |  |  |  |
| N.N.[Cl][Pt][Cl] [Cisplatin, cisplatin] |  | 0.50 ± 0.08 | strong synergy | 0.62 ± 0.03 | strong synergy |  | IC50 (NCI-H1703 cells [2]; [6]): 1.1 µM; effect of 2 h exposure to agent before poly(I:C) on percentage of apoptotic cells (NCI-H1703 cells [3]): increases the percentage of apoptotic cells; IC50 (NCI-H292 cells [1]; [7]): 3.4 µM; effect of 2 h exposure to agent before poly(I:C) on percentage of apoptotic cells (NCI-H292 cells [4]): statistically significant only for the NCIH-292 cell line |
| CC(=O)O[C@@]12CO[C@@H]1C[C@H](O)[C@@]1(C)C(=O)[C@H](O)C3=C(C)[C@@H](OC(=O)[C@H](O)[C@@H](NC(=O)OC(C)(C)C)c4ccccc4)C[C@@](O)([C@@H](OC(=O)c4ccccc4)[C@H]21)C3(C)C [Docetaxel, docetaxel] | 10.6 µM | 0.68 ± 0.2 | moderate synergy |  |  |  |  |
| COc1cccc2c1C(=O)c1c(O)c3c(c(O)c1C2=O)C[C@@](O)(C(=O)CO)C[C@@H]3O[C@H]1C[C@H](N)[C@H](O)[C@H](C)O1 [Doxorubicin, doxorubicin] | 1.03 µM | 0.62 ± 0.08 | strong synergy | 0.72 ± 0.06 | strong synergy | 3.73 µM |  |
| COc1cc([C@@H]2c3cc4c(cc3[C@@H](O[C@@H]3O[C@@H]5CO[C@@H](C)O[C@H]5[C@H](O)[C@H]3O)[C@H]3COC(=O)[C@H]23)OCO4)cc(OC)c1O [Etoposide, etoposide] | 18.7 µM | 0.68 ± 0.11 | strong synergy | 0.59 ± 0.06 | strong synergy | 32.7 µM | cytotoxicity at 4 µM (NCI-H1703 cells [2]; Homo sapiens, etoposide 4 μM, then addition of 60 μg/ml poly(I:C)): ~60%; cytotoxicity at 4 µM (NCI-H1703 cells [2]; Homo sapiens, etoposide alone 4 μM): ~25%; effect of 2 h exposure to agent before poly(I:C) on percentage of apoptotic cells (NCI-H1703 cells [3]): significant additive effect; IC50 (NCI-H292 cells [1]; Homo sapiens, NCI-H292, read-out: concentration of etoposide in combination that decreases living cells by 50%): ~8 µM; effect of 2 h exposure to agent before poly(I:C) on percentage of apoptotic cells (NCI-H292 cells [4]): significant additive effect |
| Nc1ccn([C@@H]2O[C@H](CO)[C@@H](O)C2(F)F)c(=O)n1 [Gemcitabine, gemcitabine] | 0.6 µM | 1.3 ± 0.24 | antagonism | 1.0 ± 0.07 | additivity without synergy | 0.9 µM |  |
| O=C1[O][Pt]2([NH][C@@H]3CCCC[C@H]3[NH]2)[O]C1=O [Oxaliplatin, oxaliplatin] |  |  | strong synergy |  | strong synergy |  | IC50 (NCI-H1703 cells [2]; [6]): 170 µM; IC50 (NCI-H292 cells [1]; [7]): 123 µM |
| CC(=O)O[C@H]1C(=O)[C@@]2(C)[C@H]([C@H](OC(=O)c3ccccc3)[C@]3(O)C[C@H](OC(=O)[C@H](O)[C@@H](NC(=O)c4ccccc4)c4ccccc4)C(C)=C1C3(C)C)[C@]1(OC(C)=O)CO[C@@H]1C[C@@H]2O [Paclitaxel, paclitaxel] | 0.21 µM | 0.71 ± 0.0064 | moderate synergy | 0.83 ± 0.012 | moderate synergy | 0.12 µM |  |
| COC[C@H]1OC(=O)c2coc3c2[C@@]1(C)C1=C(C3=O)[C@@H]2CCC(=O)[C@@]2(C)C[C@H]1OC(C)=O [wortmannin] |  |  |  |  |  |  | fewer living cells (NCI-H1703 cells [5]; 1 μM wortmannin + 100 μg/ml poly(I:C) in combination): 71%; fewer living cells (NCI-H1703 cells [5]; 1 μM wortmannin alone): 6% |
| polyadenylic-polyuridylic acid [poly(A:U)] |  |  |  |  |  |  | induction of apoptosis (TLR3; cells sensitive to poly(I:C)): triggers apoptosis |
| polyinosinic-polycytidylic acid [poly(I:C)] |  |  |  |  |  |  | reduction of the number of living cells (NCI-H1703 cells [2]; poly(I:C) 4 μg/ml after pre-incubation for 2 h with 20 μM etoposide): ~70%; reduction of the number of living cells (NCI-H1703 cells [2]; poly(I:C) alone 4 μg/ml): ~35%; IC50 (NCI-H1703 cells [2]; poly(I:C) used alone, 50% fewer cells than untreated control): 19.9 µg/mL; fewer living cells (NCI-H1703 cells [5]; 100 μg/ml poly(I:C) alone): 26%; fraction of cells in apoptosis (annexin V-positive) (NCI-H1703 cells [3]; NCI-H1703, 100 μg/ml poly(I:C), 24 h, 11% in control wells, FIG. 2): ⅓; percentage of apoptotic cells (annexin V-positive) (NCI-H1703 cells [3]; NCI-H1703, 100 μg/ml poly(I:C), 24 h, caspase 8 expression inhibited by siRNA): ~20%; effect of suppression of caspase 9 expression on poly(I:C)-induced apoptosis (NCI-H1703 cells [3]; NCI-H1703, 100 μg/ml poly(I:C), 24 h, caspase 9 siRNA): no significant effect; IC50 (NCI-H292 cells [1]; NCI-H292, poly(I:C) used alone, 50% fewer cells than untreated control): 14.3 µg/mL; effect of siRNA inhibition of RIG-I, MDA-5 and PKR expression on poly(I:C) apoptotic activity (TLR3; siRNA against RIG-I, MDA-5, PKR): has no effect; effect of siRNA inhibition of TLR3 or TRIF on poly(I:C)-induced apoptosis (TLR3; siRNA against TLR3 or TRIF): inhibits apoptosis |
